Eight compounds from BindingDB's records for doi:10.1021/jm00177a009 (1980) can be followed below.

For assay [1], the target named is DNA polymerase beta (Mus musculus, UniProt Q8K409). Put plainly: ChEBML_50773. From the text:
Ability to inhibit mouse beta DNA polymerase

The target of assay [2] is Gag-Pol polyprotein (Woolly monkey sarcoma virus, UniProt P03359). Put plainly: ChEBML_196792. The source says: Ability to inhibit simian sarcoma virus reverse transcriptase
Gag-Pol polyprotein, sequence (P03359 642-1310 limits assumed): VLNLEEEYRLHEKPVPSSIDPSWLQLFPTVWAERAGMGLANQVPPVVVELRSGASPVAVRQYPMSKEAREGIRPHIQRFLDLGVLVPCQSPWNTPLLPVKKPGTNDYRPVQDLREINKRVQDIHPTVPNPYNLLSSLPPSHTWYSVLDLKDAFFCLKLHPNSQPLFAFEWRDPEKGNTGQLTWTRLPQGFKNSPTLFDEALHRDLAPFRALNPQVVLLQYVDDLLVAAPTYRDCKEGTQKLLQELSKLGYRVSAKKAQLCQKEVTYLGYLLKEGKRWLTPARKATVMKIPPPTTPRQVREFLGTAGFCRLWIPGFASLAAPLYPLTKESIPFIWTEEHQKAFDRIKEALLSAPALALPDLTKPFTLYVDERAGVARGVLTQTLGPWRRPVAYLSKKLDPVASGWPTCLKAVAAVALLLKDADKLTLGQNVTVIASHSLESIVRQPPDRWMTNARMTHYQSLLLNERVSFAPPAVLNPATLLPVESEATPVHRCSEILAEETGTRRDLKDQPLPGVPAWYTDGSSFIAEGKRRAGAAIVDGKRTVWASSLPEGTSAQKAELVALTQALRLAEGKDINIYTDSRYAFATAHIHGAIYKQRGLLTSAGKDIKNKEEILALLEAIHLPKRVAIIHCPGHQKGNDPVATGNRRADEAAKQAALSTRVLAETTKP

In assay [1], `COC1/C=C/OC2(C)Oc3c(C)c(O)c4c(O)c(c(O)cc4c3C2=O)NC(=O)/C(C)=C\C=C\C(C)C(O)C(C)C(O)C(C)C(OC(C)=O)C1C` (stereo not given) [2,15,17,26,29-pentahydroxy-11-methoxy-3,7,12,14,16,18,22-heptamethyl-6,23-dioxo-8,30-dioxa-24-azatetracyclo[23.3.1.14,7.05,28]triaconta-1(28),2,4,9,19,21,25(29),26-octaen-13-yl acetate] gave an IC50 of 370 µM.

`COC1/C=C/OC2(C)Oc3c(C)c(O)c4c(O)c(ccc4c3C2=O)NC(=O)/C(C)=C\C=C\C(C)C(O)C(C)C(O)C(C)C(OC(C)=O)C1C` (stereo not given) [2,15,17,29-tetrahydroxy-11-methoxy-3,7,12,14,16,18,22-heptamethyl-6,23-dioxo-8,30-dioxa-24-azatetracyclo[23.3.1.14,7.05,28]triaconta-1(28),2,4,9,19,21,25(29),26-octaen-13-yl acetate]: the IC50 in assay [1] is 1100 µM; in assay [2], 370 µM.

For `COC1/C=C/OC2(C)Oc3c(C)c(O)c4c(O)c(c(/C=N/N5CCN(C)CC5)cc4c3C2=O)NC(=O)/C(C)=C\C=C\C(C)C(O)C(C)C(O)C(C)C(OC(C)=O)C1C` (stereo not given) [2,15,17,29-tetrahydroxy-11-methoxy-3,7,12,14,16,18,22-heptamethyl-26-(4-methylhexahydro-1-pyrazinyliminomethyl)-6,23-dioxo-8,30-dioxa-24-azatetracyclo[23.3.1.14,7.05,28]triaconta-1(28),2,4,9,19,21,25(29),26-octaen-13-yl acetate], half-maximal inhibition in assay [1] (IC50) was put at 150 µM.

As to `COC1/C=C/OC2(C)Oc3c(C)c(O)c4c(O)c(c(/C=N/N5CCCC5)cc4c3C2=O)NC(=O)/C(C)=C\C=C\C(C)C(O)C(C)C(O)C(C)C(OC(C)=O)C1C` (stereo not given) [2,15,17,29-tetrahydroxy-11-methoxy-3,7,12,14,16,18,22-heptamethyl-26-Methylene-pyrrolidin-1-yl-amino-6,23-dioxo-8,30-dioxa-24-azatetracyclo[23.3.1.14,7.05,28]triaconta-1(28),2,4,9,19,21,25(29),26-octaen-13-yl acetate], the IC50 in assay [1] came to 240 µM.

In assay [1], `COc1cccc(CN2CCN(/N=C/c3cc4c5c6c(C)c(O)c4c(O)c3NC(=O)/C(C)=C\C=C\C(C)C(O)C(C)C(O)C(C)C(OC(C)=O)C(C)C(OC)/C=C/OC(C)(O6)C5=O)CC2)c1` (stereo not given) [2,15,17,29-tetrahydroxy-11-methoxy-3,7,12,14,16,18,22-heptamethyl-26-[4-(3-Methoxy-benzyl)-piperazin-1-yl]-methylene-amino-6,23-dioxo-8,30-dioxa-24-azatetracyclo[23.3.1.14,7.05,28]triaconta-1(28),2,4,9,19,21,25(29),26-octaen-13-yl acetate] yielded an IC50 of 120 µM.

With `CCN(CC)Cc1cc2c3c4c(C)c(O)c2c(O)c1NC(=O)/C(C)=C\C=C\C(C)C(O)C(C)C(O)C(C)C(OC(C)=O)C(C)C(OC)/C=C/OC(C)(O4)C3=O` (stereo not given) [26-diethylaminomethyl-2,15,17,29-tetrahydroxy-11-methoxy-3,7,12,14,16,18,22-heptamethyl-6,23-dioxo-8,30-dioxa-24-azatetracyclo[23.3.1.14,7.05,28]triaconta-1(28),2,4,9,19,21,25(29),26-octaen-13-yl acetate], the IC50 in assay [1] is 1100 µM.

`COC1/C=C/OC2(C)Oc3c(C)c(O)c4c(O)c(c(C=O)cc4c3C2=O)NC(=O)/C(C)=C\C=C\C(C)C(O)C(C)C(O)C(C)C(OC(C)=O)C1C` (stereo not given) [26-formyl-2,15,17,29-tetrahydroxy-11-methoxy-3,7,12,14,16,18,22-heptamethyl-6,23-dioxo-8,30-dioxa-24-azatetracyclo[23.3.1.14,7.05,28]triaconta-1(28),2,4,9,19,21,25(29),26-octaen-13-yl acetate] yielded an IC50 in assay [1] of 104 µM.

In the case of `COC1/C=C/OC2(C)Oc3c(C)c(O)c4c(O)c(c(CN5CCNCC5)cc4c3C2=O)NC(=O)/C(C)=C\C=C\C(C)C(O)C(C)C(O)C(C)C(OC(C)=O)C1C` (stereo not given) [26-hexahydro-1-pyrazinylmethyl-2,15,17,29-tetrahydroxy-11-methoxy-3,7,12,14,16,18,22-heptamethyl-6,23-dioxo-8,30-dioxa-24-azatetracyclo[23.3.1.14,7.05,28]triaconta-1(28),2,4,9,19,21,25(29),26-octaen-13-yl acetate], the IC50 was found to be 4200 µM in assay [1] and 1450 µM in assay [2].
